15 compounds from PubChem BioAssay (NCI) can be followed below.

Some test systems named below: 786-0 renal; ACHN renal; HL-60(TB) leukemia; HT29 colon; IGROV1 ovarian; K-562 leukemia; OVCAR-3 ovarian; RXF 393 renal; SF-539 CNS; SK-MEL-5 melanoma.
Common to all, as to experiment: NCI anticancer screen, dose series, 48 h

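In this assay, cells in 96-well plates receive the compound at five concentrations for 48 hours. Endpoints are linearly interpolated between the surrounding concentrations. TGI marks complete inhibition of growth.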

For the compound `COc1ccc(Nc2nc(N)c(C(=O)c3cccs3)s2)cc1`, the TGI with 786-0 renal was greater than 56.6 µM; with ACHN renal it was greater than 100 µM; with HL-60(TB) leukemia, greater than 22.8 µM; in the assay on HT29 colon, greater than 41.4 µM; with IGROV1 ovarian, 41.5 µM; in the assay on K-562 leukemia it was greater than 100 µM. In addition, the TGI with OVCAR-3 ovarian is greater than 32.4 µM; in the assay with RXF 393 renal, 33.8 µM; in the assay on SF-539 CNS, 19.5 µM; with SK-MEL-5 melanoma, 12.8 µM.

For the compound `O=C1NCCS(=O)(=O)N2CCC[C@@H]12`, the TGI in the assay on 786-0 renal, in the assay with ACHN renal, with HL-60(TB) leukemia, in the assay with HT29 colon, with IGROV1 ovarian and in the assay with K-562 leukemia was greater than 100 µM throughout. Besides, the TGI in the assay with OVCAR-3 ovarian, in the assay on RXF 393 renal, in the assay with SF-539 CNS and with SK-MEL-5 melanoma was greater than 100 µM throughout.

On to `O=C1c2ccccc2C(=O)c2[nH]c(Cc3ccc(F)cc3)nc21`, for which the TGI is 43.8 µM in the assay with 786-0 renal; 31.2 µM in the assay with ACHN renal; 55.2 µM in the assay with HL-60(TB) leukemia; 30.3 µM in the assay with HT29 colon; 26.2 µM in the assay with IGROV1 ovarian; greater than 100 µM with K-562 leukemia. In addition, the TGI was 38.2 µM with OVCAR-3 ovarian, 30.2 µM in the assay with RXF 393 renal and 32 µM with SF-539 CNS.

Take `Cc1c(C(=O)O)n2cnnc2c2ccccc12`: the TGI with 786-0 renal, in the assay with ACHN renal, with HL-60(TB) leukemia, in the assay on HT29 colon, with IGROV1 ovarian and in the assay with K-562 leukemia was greater than 100 µM throughout. Also, the TGI in the assay with OVCAR-3 ovarian, in the assay on RXF 393 renal, with SF-539 CNS and with SK-MEL-5 melanoma was greater than 100 µM in each case.

In the case of `CC(=O)Nc1ccccc1NC1CC(C)N(c2ccccc2)N1C(C)=O` (configuration not stated), the TGI in the assay on 786-0 renal, in the assay on HL-60(TB) leukemia, in the assay on HT29 colon, with IGROV1 ovarian, in the assay with K-562 leukemia and in the assay with RXF 393 renal was greater than 10 µM in each case. In the assay with SK-MEL-5 melanoma, this compound yielded a TGI greater than 10 µM.

`COC(=O)C1=C(C(=O)OC)SC2(S1)C(C(=O)OC)=C(C(=O)OC)Sc1c2ssc1=NC(C)(C)C`: the TGI in the assay on 786-0 renal amounted to 2.62 µM; in the assay on ACHN renal, 3.35 µM; in the assay with HL-60(TB) leukemia, 4.73 µM; in the assay on HT29 colon it was 2.57 µM; in the assay on IGROV1 ovarian, 3.16 µM; in the assay on K-562 leukemia, 9.66 µM. The TGI was found to be 3.5 µM with OVCAR-3 ovarian, 1.96 µM in the assay with RXF 393 renal, 2.69 µM with SF-539 CNS and 4.92 µM in the assay with SK-MEL-5 melanoma.

Take `O=C(CSc1nc2ccccc2c(=O)n1-c1ccccc1)N=Nc1c(O)[nH]c2ccc(F)cc12`: the TGI with 786-0 renal was found to be 5.05 µM; in the assay with HL-60(TB) leukemia, 3.96 µM; with HT29 colon, 6.96 µM; in the assay on K-562 leukemia it was 3.35 µM; in the assay with OVCAR-3 ovarian, 3.91 µM; with RXF 393 renal, 4.09 µM. Also, the TGI in the assay with SF-539 CNS was 9.21 µM; with SK-MEL-5 melanoma it was 15.4 µM.

Consider `CCOC(=O)[C@@H]1ON2OC(OC3CCCC3(c3ccccc3)c3ccccc3)C(OC(C)=O)[C@H]3OC(=O)[C@@H]1C32` (some centres not stated), for which the TGI in the assay with 786-0 renal was greater than 100 µM; in the assay with ACHN renal it was 73.2 µM; with HL-60(TB) leukemia, greater than 100 µM; in the assay on HT29 colon it was greater than 100 µM; with IGROV1 ovarian it was greater than 100 µM; with K-562 leukemia, greater than 100 µM. Besides, the TGI in the assay on OVCAR-3 ovarian is greater than 100 µM; with RXF 393 renal, 84.2 µM; with SF-539 CNS, greater than 100 µM; in the assay with SK-MEL-5 melanoma it was greater than 100 µM.

`O=C1CC2CCC(C1)S2=O` (configuration not stated): the TGI with 786-0 renal, in the assay on HL-60(TB) leukemia, with HT29 colon, with IGROV1 ovarian, in the assay on K-562 leukemia and with OVCAR-3 ovarian was greater than 100 µM each time. For the same compound, the TGI in the assay on RXF 393 renal, with SF-539 CNS and with SK-MEL-5 melanoma was greater than 100 µM throughout.

`CC1=NN(c2nc(N)nc(CF)n2)C(C)(C)C1`: the TGI in the assay on 786-0 renal, with ACHN renal, with HL-60(TB) leukemia, with HT29 colon, in the assay with IGROV1 ovarian and in the assay with K-562 leukemia was greater than 100 µM in each case. The TGI in the assay on RXF 393 renal, in the assay on SF-539 CNS and in the assay with SK-MEL-5 melanoma was greater than 100 µM each time.

For `CCC[C@@H]1C(=O)N=C(N)N1C(=O)OCc1ccccc1`, the TGI with 786-0 renal, in the assay with ACHN renal, with HL-60(TB) leukemia, in the assay on HT29 colon, in the assay with IGROV1 ovarian and in the assay with K-562 leukemia was greater than 100 µM throughout. Further, the TGI in the assay with OVCAR-3 ovarian, in the assay on RXF 393 renal and in the assay with SK-MEL-5 melanoma was greater than 100 µM each time.

With `CCOC(=O)N1CCC(=C2c3ccc(Cl)cc3CCc3cccnc32)CC1`, the TGI in the assay on 786-0 renal was found to be 33.4 µM; in the assay on ACHN renal it was 15.8 µM; in the assay on HL-60(TB) leukemia, 22.9 µM; with HT29 colon, 16.9 µM; in the assay on IGROV1 ovarian, 8.22 µM; in the assay on K-562 leukemia it was 49.7 µM. Also, the TGI is 22.5 µM in the assay on OVCAR-3 ovarian, 22.7 µM in the assay with RXF 393 renal and 9.22 µM in the assay on SK-MEL-5 melanoma.

As for `NC(N)=NCCCC(NC(=O)OCCCCn1ccc(N)nc1=O)C(=O)O` (configuration not stated), the TGI in the assay with 786-0 renal, in the assay with ACHN renal, in the assay with HL-60(TB) leukemia, in the assay with HT29 colon, in the assay on IGROV1 ovarian and in the assay on K-562 leukemia was greater than 100 µM each time. The TGI in the assay on OVCAR-3 ovarian, with RXF 393 renal and with SF-539 CNS was greater than 100 µM throughout.

Take `O=C(O)C(=O)/C=C(\O)c1ccc(Br)cc1`: the TGI in the assay on 786-0 renal, in the assay with ACHN renal, in the assay with HL-60(TB) leukemia, in the assay with HT29 colon, with IGROV1 ovarian and in the assay with K-562 leukemia was greater than 100 µM each time. Moreover, the TGI with OVCAR-3 ovarian, in the assay with RXF 393 renal and in the assay on SK-MEL-5 melanoma was greater than 100 µM each time.

As for `COC(=O)c1c(O)ccc2c1c1c(n2Cc2ccccc2)C(=O)c2ccccc2C1`, the TGI is greater than 100 µM in the assay with 786-0 renal; greater than 100 µM in the assay on HL-60(TB) leukemia; 37.4 µM with HT29 colon; greater than 100 µM in the assay with IGROV1 ovarian; 46 µM in the assay on K-562 leukemia; greater than 100 µM in the assay with OVCAR-3 ovarian. The TGI in the assay with RXF 393 renal was 60 µM; with SF-539 CNS, greater than 100 µM; with SK-MEL-5 melanoma, greater than 100 µM.
